Assay results from the supplement of paper PMC13380429.

Assays:
Settings in all cases: 72 h
Caco-2 [1] = assay: drug sensitivity score (DSS) for viability; higher = more toxic; extreme values may be limits of the assay
U2OS [2] = assay: as above
HepG2 [3] = assay: as above
Calu-3 [4] = assay: as above
Caco-2 [5] = assay: cell viability relative to DMSO; higher = less toxic
U2OS [6] = assay: as above
HepG2 [7] = assay: as above
Calu-3 [8] = assay: as above
Caco-2 [9] = assay: relative viability EC50 (midpoint between 100% and the lowest measured viability); higher = less toxic
U2OS [10] = assay: as above
HepG2 [11] = assay: as above
Calu-3 [12] = assay: as above
Vero E6 [13] = assay: drug sensitivity score (DSS) for viability; higher = more toxic; extreme values may be limits of the assay
Vero E6 [14] = assay: cell viability relative to DMSO; higher = less toxic
Vero E6 [15] = assay: relative viability EC50 (midpoint between 100% and the lowest measured viability); higher = less toxic

CC[C@@H](C(N)=O)N1CCCC1=O [levetiracetam]
drug sensitivity score (Caco-2 [1]): 0
drug sensitivity score (U2OS [2]): 0
drug sensitivity score (HepG2 [3]): 0
drug sensitivity score (Calu-3 [4]): 0
cell viability (Caco-2 [5]; 1 nM): 96.2%
cell viability (Caco-2 [5]; 10 nM): 91.6%
cell viability (Caco-2 [5]; 100 nM): 100%
cell viability (Caco-2 [5]; 1000 nM): 95.2%
cell viability (Caco-2 [5]; 10000 nM): 101%
cell viability (U2OS [6]; 1 nM): 103%
cell viability (U2OS [6]; 10 nM): 98.2%
cell viability (U2OS [6]; 100 nM): 101%
cell viability (U2OS [6]; 1000 nM): 97.2%
cell viability (U2OS [6]; 10000 nM): 103%
cell viability (HepG2 [7]; 1 nM): 93.2%
cell viability (HepG2 [7]; 10 nM): 105%
cell viability (HepG2 [7]; 100 nM): 90%
cell viability (HepG2 [7]; 1000 nM): 104%
cell viability (HepG2 [7]; 10000 nM): 92%
cell viability (Calu-3 [8]; 1 nM): 87.4%
cell viability (Calu-3 [8]; 10 nM): 91.8%
cell viability (Calu-3 [8]; 100 nM): 98.6%
cell viability (Calu-3 [8]; 1000 nM): 103%
cell viability (Calu-3 [8]; 10000 nM): 103%
relative viability EC50 (Caco-2 [9]): > 10 µM
relative viability EC50 (U2OS [10]): > 10 µM
relative viability EC50 (HepG2 [11]): > 10 µM
relative viability EC50 (Calu-3 [12]): > 10 µM

O=NN(CCCl)C(=O)NC1CCCCC1 [lomustine]
drug sensitivity score (Vero E6 [13]): 0
drug sensitivity score (Caco-2 [1]): 3.2
drug sensitivity score (U2OS [2]): 0
drug sensitivity score (HepG2 [3]): 0
drug sensitivity score (Calu-3 [4]): 0
cell viability (Vero E6 [14]; 1 nM): 97.9%
cell viability (Vero E6 [14]; 10 nM): 99.1%
cell viability (Vero E6 [14]; 100 nM): 99.6%
cell viability (Vero E6 [14]; 1000 nM): 92.4%
cell viability (Vero E6 [14]; 10000 nM): 94.6%
cell viability (Caco-2 [5]; 1 nM): 89.7%
cell viability (Caco-2 [5]; 10 nM): 78.5%
cell viability (Caco-2 [5]; 100 nM): 101%
cell viability (Caco-2 [5]; 1000 nM): 93.2%
cell viability (Caco-2 [5]; 10000 nM): 59%
cell viability (U2OS [6]; 1 nM): 98.5%
cell viability (U2OS [6]; 10 nM): 97.1%
cell viability (U2OS [6]; 100 nM): 97.5%
cell viability (U2OS [6]; 1000 nM): 102%
cell viability (U2OS [6]; 10000 nM): 94%
cell viability (HepG2 [7]; 1 nM): 102%
cell viability (HepG2 [7]; 10 nM): 95%
cell viability (HepG2 [7]; 100 nM): 99.2%
cell viability (HepG2 [7]; 1000 nM): 104%
cell viability (HepG2 [7]; 10000 nM): 98.7%
cell viability (Calu-3 [8]; 1 nM): 87.1%
cell viability (Calu-3 [8]; 10 nM): 102%
cell viability (Calu-3 [8]; 100 nM): 88.9%
cell viability (Calu-3 [8]; 1000 nM): 104%
cell viability (Calu-3 [8]; 10000 nM): 96.1%
relative viability EC50 (Vero E6 [15]): > 10 µM
relative viability EC50 (U2OS [10]): > 10 µM
relative viability EC50 (HepG2 [11]): > 10 µM
relative viability EC50 (Calu-3 [12]): > 10 µM

CC(=O)Oc1ccccc1C(=O)Nc1ncc([N+](=O)[O-])s1 [nitazoxanide]
drug sensitivity score (Vero E6 [13]): 0
drug sensitivity score (Caco-2 [1]): 1.6
drug sensitivity score (U2OS [2]): 0
drug sensitivity score (HepG2 [3]): 2.8
drug sensitivity score (Calu-3 [4]): 0
cell viability (Vero E6 [14]; 1 nM): 98.2%
cell viability (Vero E6 [14]; 10 nM): 98.7%
cell viability (Vero E6 [14]; 100 nM): 106%
cell viability (Vero E6 [14]; 1000 nM): 102%
cell viability (Vero E6 [14]; 10000 nM): 96.9%
cell viability (Caco-2 [5]; 1 nM): 97.3%
cell viability (Caco-2 [5]; 10 nM): 98.8%
cell viability (Caco-2 [5]; 100 nM): 102%
cell viability (Caco-2 [5]; 1000 nM): 104%
cell viability (Caco-2 [5]; 10000 nM): 61.7%
cell viability (U2OS [6]; 1 nM): 99.2%
cell viability (U2OS [6]; 10 nM): 98.5%
cell viability (U2OS [6]; 100 nM): 101%
cell viability (U2OS [6]; 1000 nM): 93.3%
cell viability (U2OS [6]; 10000 nM): 91.4%
cell viability (HepG2 [7]; 1 nM): 97.1%
cell viability (HepG2 [7]; 10 nM): 95.6%
cell viability (HepG2 [7]; 100 nM): 94.5%
cell viability (HepG2 [7]; 1000 nM): 91%
cell viability (HepG2 [7]; 10000 nM): 65.3%
cell viability (Calu-3 [8]; 1 nM): 102%
cell viability (Calu-3 [8]; 10 nM): 103%
cell viability (Calu-3 [8]; 100 nM): 107%
cell viability (Calu-3 [8]; 1000 nM): 99.1%
cell viability (Calu-3 [8]; 10000 nM): 98.8%
relative viability EC50 (Vero E6 [15]): > 10 µM
relative viability EC50 (U2OS [10]): > 10 µM
relative viability EC50 (Calu-3 [12]): > 10 µM

CN1CCN(c2cccc3[nH]c(=O)oc23)CC1 [pardoprunox]
drug sensitivity score (Caco-2 [1]): 0
drug sensitivity score (U2OS [2]): 0
drug sensitivity score (HepG2 [3]): 0
drug sensitivity score (Calu-3 [4]): 0
cell viability (Caco-2 [5]; 1 nM): 102%
cell viability (Caco-2 [5]; 10 nM): 101%
cell viability (Caco-2 [5]; 100 nM): 96.4%
cell viability (Caco-2 [5]; 1000 nM): 90.6%
cell viability (Caco-2 [5]; 10000 nM): 100%
cell viability (U2OS [6]; 1 nM): 106%
cell viability (U2OS [6]; 10 nM): 99.3%
cell viability (U2OS [6]; 100 nM): 102%
cell viability (U2OS [6]; 1000 nM): 95.3%
cell viability (U2OS [6]; 10000 nM): 101%
cell viability (HepG2 [7]; 1 nM): 90.7%
cell viability (HepG2 [7]; 10 nM): 105%
cell viability (HepG2 [7]; 100 nM): 89.1%
cell viability (HepG2 [7]; 1000 nM): 99.2%
cell viability (HepG2 [7]; 10000 nM): 97.3%
cell viability (Calu-3 [8]; 1 nM): 95.8%
cell viability (Calu-3 [8]; 10 nM): 93.2%
cell viability (Calu-3 [8]; 100 nM): 102%
cell viability (Calu-3 [8]; 1000 nM): 107%
cell viability (Calu-3 [8]; 10000 nM): 99.1%
relative viability EC50 (Caco-2 [9]): > 10 µM
relative viability EC50 (U2OS [10]): > 10 µM
relative viability EC50 (HepG2 [11]): > 10 µM
relative viability EC50 (Calu-3 [12]): > 10 µM

O=C(/C=C/C=C/c1ccc2c(c1)OCO2)N1CCCCC1 [piperine]
drug sensitivity score (Vero E6 [13]): 0
drug sensitivity score (Caco-2 [1]): 1.6
drug sensitivity score (U2OS [2]): 0
drug sensitivity score (HepG2 [3]): 0
drug sensitivity score (Calu-3 [4]): 0
cell viability (Vero E6 [14]; 1 nM): 108%
cell viability (Vero E6 [14]; 10 nM): 102%
cell viability (Vero E6 [14]; 100 nM): 109%
cell viability (Vero E6 [14]; 1000 nM): 92.5%
cell viability (Vero E6 [14]; 10000 nM): 93.2%
cell viability (Caco-2 [5]; 1 nM): 94.4%
cell viability (Caco-2 [5]; 10 nM): 106%
cell viability (Caco-2 [5]; 100 nM): 96.6%
cell viability (Caco-2 [5]; 1000 nM): 97.4%
cell viability (Caco-2 [5]; 10000 nM): 70.9%
cell viability (U2OS [6]; 1 nM): 95.1%
cell viability (U2OS [6]; 10 nM): 97.6%
cell viability (U2OS [6]; 100 nM): 91.2%
cell viability (U2OS [6]; 1000 nM): 102%
cell viability (U2OS [6]; 10000 nM): 97.8%
cell viability (HepG2 [7]; 1 nM): 93.7%
cell viability (HepG2 [7]; 10 nM): 91.8%
cell viability (HepG2 [7]; 100 nM): 86.7%
cell viability (HepG2 [7]; 1000 nM): 84.6%
cell viability (HepG2 [7]; 10000 nM): 95.9%
cell viability (Calu-3 [8]; 1 nM): 92.4%
cell viability (Calu-3 [8]; 10 nM): 103%
cell viability (Calu-3 [8]; 100 nM): 101%
cell viability (Calu-3 [8]; 1000 nM): 106%
cell viability (Calu-3 [8]; 10000 nM): 90.1%
relative viability EC50 (Vero E6 [15]): > 10 µM
relative viability EC50 (U2OS [10]): > 10 µM
relative viability EC50 (HepG2 [11]): > 10 µM
relative viability EC50 (Calu-3 [12]): > 10 µM

CCCOc1ccc2c(c1)CC[C@@H]1[C@@H]2CC[C@]2(C)[C@@H](OC)CC[C@@H]12 [promestriene]
drug sensitivity score (Caco-2 [1]): 0
drug sensitivity score (U2OS [2]): 0
drug sensitivity score (HepG2 [3]): 0
drug sensitivity score (Calu-3 [4]): 0
cell viability (Caco-2 [5]; 1 nM): 97.9%
cell viability (Caco-2 [5]; 10 nM): 97.4%
cell viability (Caco-2 [5]; 100 nM): 97.7%
cell viability (Caco-2 [5]; 1000 nM): 90.4%
cell viability (Caco-2 [5]; 10000 nM): 98.5%
cell viability (U2OS [6]; 1 nM): 93.5%
cell viability (U2OS [6]; 10 nM): 105%
cell viability (U2OS [6]; 100 nM): 96.2%
cell viability (U2OS [6]; 1000 nM): 96.5%
cell viability (U2OS [6]; 10000 nM): 99.9%
cell viability (HepG2 [7]; 1 nM): 102%
cell viability (HepG2 [7]; 10 nM): 107%
cell viability (HepG2 [7]; 100 nM): 103%
cell viability (HepG2 [7]; 1000 nM): 93%
cell viability (HepG2 [7]; 10000 nM): 97.9%
cell viability (Calu-3 [8]; 1 nM): 99%
cell viability (Calu-3 [8]; 10 nM): 90.9%
cell viability (Calu-3 [8]; 100 nM): 97.5%
cell viability (Calu-3 [8]; 1000 nM): 92.3%
cell viability (Calu-3 [8]; 10000 nM): 104%
relative viability EC50 (Caco-2 [9]): > 10 µM
relative viability EC50 (U2OS [10]): > 10 µM
relative viability EC50 (HepG2 [11]): > 10 µM
relative viability EC50 (Calu-3 [12]): > 10 µM

CCC(=O)NC[C@@H]1C[C@H]1c1cccc2c1CCO2 [tasimelteon]
drug sensitivity score (Caco-2 [1]): 0
drug sensitivity score (U2OS [2]): 0
drug sensitivity score (HepG2 [3]): 0
drug sensitivity score (Calu-3 [4]): 0
cell viability (Caco-2 [5]; 1 nM): 97.9%
cell viability (Caco-2 [5]; 10 nM): 92.1%
cell viability (Caco-2 [5]; 100 nM): 90.6%
cell viability (Caco-2 [5]; 1000 nM): 98%
cell viability (Caco-2 [5]; 10000 nM): 99.4%
cell viability (U2OS [6]; 1 nM): 92.8%
cell viability (U2OS [6]; 10 nM): 103%
cell viability (U2OS [6]; 100 nM): 93.9%
cell viability (U2OS [6]; 1000 nM): 93.6%
cell viability (U2OS [6]; 10000 nM): 102%
cell viability (HepG2 [7]; 1 nM): 108%
cell viability (HepG2 [7]; 10 nM): 107%
cell viability (HepG2 [7]; 100 nM): 102%
cell viability (HepG2 [7]; 1000 nM): 106%
cell viability (HepG2 [7]; 10000 nM): 98.5%
cell viability (Calu-3 [8]; 1 nM): 91.1%
cell viability (Calu-3 [8]; 10 nM): 103%
cell viability (Calu-3 [8]; 100 nM): 91.9%
cell viability (Calu-3 [8]; 1000 nM): 103%
cell viability (Calu-3 [8]; 10000 nM): 103%
relative viability EC50 (Caco-2 [9]): > 10 µM
relative viability EC50 (U2OS [10]): > 10 µM
relative viability EC50 (HepG2 [11]): > 10 µM
relative viability EC50 (Calu-3 [12]): > 10 µM
